Source: paper PMC7598702, “Phenolome of Asian Agrimony Tea (Agrimonia asiatica Juz., Rosaceae): LC-MS Profile, α-Glucosidase Inhibitory Potential and Stability” (Foods, 2020)

Columns and labels:
α-glucosidase [1] = system: α-glucosidase; design: method as in PMID 28045450; conditions: agrimoniin from Comarum palustre herb extract; cited from earlier work
α-glucosidase [2] = assay: HPLC activity-based profiling (microfractionation) of A. asiatica extract for α-glucosidase inhibition; assay type: biochemical, Saccharomyces cerevisiae; conditions: microfractions of A. asiatica extract, main inhibition window 11.5 to 13.5 min
Experimental: Aliquots (100 µL) of A. asiatica extract solution (10 mg/mL) were separated under analytical HPLC conditions as described in Section 2.4. The collection of eluates (40 µL) performed every 30 s in 96-well plates. After drying and redissolving the eluates in 10 µL of PBS the eluates were investigated as described earlier. α-Glucosidase was dissolved in PBS which contained BSA (0.2%) up to 0.5 U/mL concentration and then added 125 µL of PBS and 60 µL p-nitrophenyl-α-D-glucopyranoside (5 mM). The samples were incubated at 37 °C for 5 min and then 60 µL α-glucosidase (0.4 U/mL) was added. The samples were incubated at 37 °C for 15 min. Then 50 µL sodium carbonate (200 mM) was added. Absorbance (A400) was determined at 400 nm. The rates (1-A400) were carried out to create HPLC-based bioactivity profiles of A. asiatica extract.
To characterize the chemical profile of A. asiatica herb extract microcolumn reversed-phase HPLC-PDA procedure was applied (Figure 3a). […] For identification, the components of interest of A. asiatica herb with high α-glucosidase inhibitory activity, the extract was subjected by HPLC activity-based profiling. To detect of anti-α-glucosidase inhibitors in A. asiatica herb extract, the procedure of small-scale semi-preparative microfractionation by reversed-phase HPLC was applied. […] Subsequently, microfractions were dried and redissolved in a buffer solution. Thereafter, an enzyme solution was added to estimate the inhibition of α-glucosidase by the eluate.

[3] = Stability of A. asiatica phenolics in water media (infusions and decoctions, HPLC-MS quantification); assay type: physicochemical; conditions: boiling infusion (100 °C) and decoctions
Experimental: Quantification of compounds 1–60 were carried out using HPLC-MS data (full scan MS, peak area). The quantifications were realized under the conditions specified in Section 2.4. For the preparation of the stock solutions, 44 reference compounds (2, 6–16, 19, 23, 26, 28, 31–51, 53–56, 58–60) were carefully weighed (10 mg), then separately dissolved in methanol in a W flask (10 mL). An external standard calibration curve was constructed with the use of six data points (100, 50, 25, 10, 5, and 1 µg/mL). The calibration curves were constructed by plotting the MS peak area vs. concentration levels. Correlation coefficients, r^2; standard deviation, SYX; limits of detection, LOD; limits of quantification, LOQ; linear ranges were computed applying early reference. All analyses were performed in triplicate, data obtained were expressed as mean value ± standard deviation (SD). […] The weight of the tube was reduced to an initial sign after cooling. For analysis, the extract obtained was filtered through 0.22 μm polytetrafluoroethylene (PTFE) syringe filter and then injected into the HPLC system. […]

Compound	α-glucosidase inhibition of HPLC peaks (α-glucosidase [2])	content change on heat treatment in water [3]	further results
O=C(O[C@H]1O[C@@H]2COC(=O)c3cc(O)c(O)c(O)c3-c3c(cc(O)c(O)c3O)C(=O)O[C@H]2[C@@H]2OC(=O)c3cc(O)c(O)c(O)c3-c3c(cc(O)c(O)c3O)C(=O)O[C@@H]12)c1cc(O)c(O)c(Oc2c(C(=O)O[C@H]3O[C@@H]4COC(=O)c5cc(O)c(O)c(O)c5-c5c(cc(O)c(O)c5O)C(=O)O[C@H]4[C@@H]4OC(=O)c5cc(O)c(O)c(O)c5-c5c(cc(O)c(O)c5O)C(=O)O[C@@H]34)cc(O)c(O)c2O)c1 [Compound 36, Agrimoniin]	most pronounced inhibition		inhibitory activity relative to α-glucosidase (α-glucosidase [1]): high inhibitory activity
O=c1oc2c(O)c(O)cc3c(=O)oc4c(O)c(O)cc1c4c23 [Compound 38, Ellagic acid]	less significant results of inhibition		
O=c1c(O[C@@H]2O[C@H](CO)[C@@H](O)[C@H](O)[C@H]2O)c(-c2ccc(O)c(O)c2)oc2cc(O)cc(O)c12 [Compound 41, Quercetin-3-O-glucoside]			α-glucosidase inhibition of HPLC peaks (α-glucosidase [2]; listed as isoquercitrin): less significant results of inhibition
O=C(O)CC(=O)OC[C@H]1O[C@@H](Oc2c(-c3ccc(O)c(O)c3)oc3cc(O)cc(O)c3c2=O)[C@H](O)[C@@H](O)[C@@H]1O [Compound 45, Quercetin-3-O-(6″-O-malonyl)-glucoside]		decreased to trace amounts	
O=C(O)CC(=O)OCC1OC(Oc2cc(-c3cc(=O)c4c(O)cc(O)cc4o3)ccc2O)C(O)C(O)C1O (stereo not drawn) [Compound 53, Luteolin-3-O-(6″-O-malonyl)-glucoside]		decreased to trace amounts	
